The nature of data set [1]: In-vivo pharmacokinetic study in mice. Particulars: mouse, plasma. As for the experimental part:
In in-vivo study, the average mouse weight was 24 ± 5 g. Mice were acclimated for 7 days prior to the study and fasted for 24 h before the study. All in-vivo experiments were approved by the ethical committee, Faculty of Pharmacy, Gomal University (No: 10/ERB/GU). The mice were anesthetized under gas anesthesia (i.e., isoflurane in oxygen (2–4% (v/v))). Bulk hairs were removed with an electrical clipper and then a depilatory cream was applied to remove the remaining hair that could interfere with the insertion of LS-TC-MNP [41, 42]. Hairs were removed from the back area of mouse at 4 h prior to experiment. Mice were divided into two groups (n = 16 per group (total: 32)); oral (given the oral LS dispersion) and transdermal (LS-TC-MNP inserted in skin). Mice in the oral group received an oral LS dispersion of (200 mg/kg). The transdermal group was the LS-TC-MNP treatment group, in which each mouse was treated with (LS = 25 mg) LS-TC-MNP. To facilitate the insertion of LS-TC-MNP, the mice were anesthetized by gas anesthesia. The mice skin was pinched, and LS-TC-MNP attached to self-adhesive margins was inserted with firm finger pressure onto the back of each mouse. Blood samples were withdrawn by bleeding the tail vein at predetermined time intervals. The study plan was 16 mice per group and a maximum of (n = 3) blood samples was withdrawn from each mouse. Each mouse was bled twice a day. After 1 and 4 h, blood was withdrawn from the first 4 mice; the next 4 mice were bled after 2 and 6 h; the next four mice at 8 and 24 h; the remaining 4 mice at 12 h; and all mice (n = 16) at 48 h. The area under the curve and other pharmacokinetic parameters were measured by using Pk solver software (Microsoft Excel add-in programm).

The conditions of data set [2]: cited from earlier work.

Turning to `CCN1CCC[C@H]1CNC(=O)c1cc(S(N)(=O)=O)ccc1OC` [Levosulpiride, 5-(amino-sulfonyl)-N-[(1-ethyl-2-pyrrolidinyl)methyl]-2-methoxy benzamide], the concentration at 1 h in data set [1] (1 h, patch LS = 25 mg transdermal or oral dispersion 200 mg/kg) stood at 500 ± 1940 ng/mL. The concentration at 2 h in data set [1] (2 h, oral dispersion 200 mg/kg, read-out: LS plasma concentration) turned out to be 200 ng/mL. For the same compound, the concentration at 4 h in data set [1] (4 h, oral dispersion 200 mg/kg, read-out: LS plasma concentration) turned out to be 180 ng/mL. For the same compound, the concentration at 6 h in data set [1] (6 h, patch LS = 25 mg transdermal or oral dispersion 200 mg/kg) was determined as 400 ± 1370 ng/mL. In addition, the “intravenous dose excreted unchanged in the urine” value in data set [2] (intravenous ref 6) was 70–90%. Moreover, in data set [2] (oral ref 4), the half-life entry is given as “about 6 h” and the oral bioavailability entry is “less than 25%”. In data set [2] (oral ref 6), the “oral dose excreted unchanged in the urine” value is reported as 15–25%.

The record behind these values is paper PMC8839939 (Polymers, 2022).
